Where “and” joins values, the source holds several entries; their conditions need not be identical. Identical values can stand only once.
Legend:
Type in all cases: in vivo, rat
[1] = tested on: rats subjected to Li-pilo induced SE; assay: Quantification of cell densities after lithium-pilocarpine SE (Example 1); settings: for cell loss, CA1 pyramidal layer: significant vs pilo-DZP
Procedure: (§1) The effects of increasing doses of the test compound were studied on 3 groups of rats. The animals of the first group received 10 mg/kg of the test compound, i.p., 1 h after the onset of SE (pilo-TC10) while the animals of groups 2 and 3 received 30 and 60 mg/kg of the test compound (pilo-TC30 and pilo-TC60), respectively.
(§2) Another group was injected with 2 mg/kg diazepam (DZP, i.m.) at 1 h after the onset of SE. This is a standard treatment to improve animals survival after SE (pilo-DZP). The control group received saline instead of pilocarpine and the test compound (saline-saline). The pilo-test compound rats surviving SE were then injected about 10 h after the first test compound injection with a second i.p. injection of the same dose of the test compound and were maintained under a twice daily treatment with the test compound for 6 additional days. Pilo-DZP received a second injection of 1 mg/kg DZP on the day of SE at about 10 h after the first one. Thereafter, Pilo-DZP and saline-saline rats received twice daily an equivalent volume of saline.
Quantification of cell densities was performed at […] after SE on 8 pilo-DZP, 8 pilo-TC10, 7 pilo-TC30, 7 pilo-TC60, and 6 saline-saline rats. At 14 days after SE, animals were deeply anesthetized with […] pentobarbital (Dolethal®, Vetoquinol, Lure, France. Brains were then removed and frozen. Serial 20 μm slices were cut in a cryostat, air-dried during several days before thionine staining.
Quantification of cell densities was performed with a 10×10 boxes 1 cm^2 microscopic grid on coronal sections according to the stereotaxic coordinates of the rat brain atlas (Paxinos and Watson, 1986, The Rat brain in Stereotaxic Coordinates, 2nd ed. Academic Press, San Diego). Cell counts were performed twice in a blind manner and were the average of at least 3 values from 2 adjacent sections in each individual animal. Counts involved only cells larger than 10 μm, smaller ones being considered as glial cells.
For the comparison of the characteristics of SE in pilo-saline and pilo-test compound animals, a non-paired Student's t-test was used. The comparison between the number of rats seizing in both groups was performed by means of a Chi square test. For neuronal damage, statistical analysis between groups was performed using ANOVA followed by a Fisher's test for multiple comparisons using the Statview software (Fisher R A, 1946a, Statistical Methods for Research Workers (10th edition) Oliver & Boyd, Edinburgh; Fisher R A, 1946b, The Design of Experiments (4th edition) Oliver & Boyd, Edinburgh)

[2] = tested on: rats subjected to Li-pilo induced SE; assay: Mortality induced by lithium-pilocarpine status epilepticus (Example 1)
Procedure: Male Wistar rats weighing 225-250 g, provided by Janvier Breeding Center (Le Genest-St-lste, France) were housed under controlled standard conditions (light/dark cycle, 7.00 a.m.-7.00 p.m. lights on), with food and water available ad libitum. All animal experimentation was performed in accordance with the rules of the European Communities Council Directive of Nov. 24, 1986 (86/609/EEC), and the French Department of Agriculture (License No 67-97). For electrode implantation, rats were anesthetized by an i.p. injection of 2.5 mg/kg diazepam (DZP, Valium, Roche, France) and […] ketamine chlorhydrate (Imalgene 1000, Rhone Merrieux, France). Four single-contact recording electrodes were placed on the skull, over the parietal cortex, two on each side.
All rats received lithium chloride (3 meq/kg, i.p., Sigma, St Louis, Mo., U.S.A.); about 20 h later, animals were placed into plexiglas boxes, in order to record baseline cortical EEG. Methylscopolamine bromide (1 mg/kg, s.c., Sigma) was administered to limit the peripheral effects of the convulsant. SE was induced by injecting pilocarpine hydrochloride (25 mg/kg, s.c., Sigma) 30 min after methyl-scopolamine. The bilateral EEG cortical activity was recorded during the whole duration of SE and behavioral changes were noted.
as §1, §2
The difference was statistically significant (p<0.01).

[3] = tested on: rats subjected to li-pilo SE; assay: Mortality over the first 48 h after lithium-pilocarpine SE (Example 2)
Procedure: Adult male Sprague-Dawley rats provided by Janvier Breeding Center (Le Genest-St-Isle, France) were housed under controlled, uncrowded standard conditions at 20-22° C. (light/dark cycle, 7.00 a.m.-7.00 p.m. lights on), with food and water available ad libitum. All animal experimentation was performed in accordance with the rules of the European Communities Council Directive of Nov. 24, 1986 (86/609/EEC), and the French Department of Agriculture (License No 67-97).
All rats received lithium chloride (3 meq/kg, i.p., Sigma, St Louis, Mo., U.S.A.) and about 20 h later, all animals received also methylscopolamine bromide (1 mg/kg, s.c., Sigma) that was administered to limit the peripheral effects of the convulsant. SE was induced by injecting pilocarpine hydrochloride (25 mg/kg, s.c., Sigma) 30 min after methylscopolamine. The effects of increasing doses of TC (RWJ) were studied in 5 groups of rats. […] The control group received vehicle instead of pilocarpine and TC. The rats surviving SE were then injected about 10 h after the first TC injection with a second i.p. injection of 1.25 mg/kg DZP for the DZP group or of the same dose of TC as in the morning and were maintained under a twice daily TC treatment (s.c.) for 6 additional days while DZP rats received a vehicle injection.
A total number of 143 Sprague-Dawley rats weighing 250-330 g were subjected to lithium-pilocarpine (Li-pilo)-induced SE. […] The behavioral characteristics of SE were identical in both li-pilo-DZP and li-pilo-TC groups. Within 5 min after pilocarpine injection, rats developed diarrhea, piloerection and other signs of cholinergic stimulation. […] Recurrent seizures started around 15-20 min after pilocarpine administration. These seizures which associated episodes of head and bilateral forelimb myoclonus with rearing and falling progressed to SE at about 35-40 min after pilocarpine, as previously described (Turski et al., 1989; Dube et al., 2001; Andre et al., 2003). The control group not subjected to SE and receiving lithium and saline was composed of 20 rats.

[4] = pilo-DZP compared to saline-saline rats

For `CN1C(=O)CN=C(c2ccccc2)c2cc(Cl)ccc21` [DZP, diazepam, reference compound], the “cell loss, CA1 region of the hippocampus (pyramidal cell layer)” value [1, 4] was 70% and 75%, the “cell loss, CA3a” value [1, 4] was 54% and the “cell loss, CA3b” value [1, 4] was 31%. The “cell loss, dorsal entorhinal cortex layer II” value [1, 4] was 9%, the “cell loss, dorsal entorhinal cortex layers III-IV” value [1, 4] was 15% and the “cell loss, hilus of the dentate gyrus” value [1, 4] was 73%. The “cell loss, lateral thalamic nucleus” value [1, 4] was 91%, the “cell loss, mediodorsal thalamic nucleus” value [1, 4] was 56% and the “cell loss, piriform cortex layer II” value [1, 4] was 53%. The “cell loss, piriform cortex layers III-IV” value [1, 4] was “total”, the “cell loss, ventral entorhinal cortex layer II” value [1, 4] was “totally preserved” and the “cell loss, ventral entorhinal cortex layers III-IV” value [1, 4] was 44%. The “degree of mortality during the first 48 h after SE” value ([2]; pilo-DZP, DZP 2 mg/kg i.m. 1 h after onset of SE, 5/22) was 23%, the “degree of mortality over the first 48 h after SE” value ([3]; DZP 2.5 mg/kg i.m., group devoted to cell counting at 14 days, 4/11) was 36% and the “degree of mortality over the first 48 h after SE” value ([3]; DZP 2.5 mg/kg i.m., group devoted to latency to SRS and late cell counting, 1/14) was 7%.

In the case of `NC(=O)OC[C@@H](O)c1ccccc1Cl` [Formula 7], the “neuroprotection compared to pilo-DZP rats, ventral entorhinal cortex layers III-IV” value ([1]; TC60 (60 mg/kg)) is reported as 31%, the “reduction of neuronal damage recorded in pilo-DZP rats, piriform cortex layer II” value ([1]; TC60 (60 mg/kg)) is reported as 41% and the “reduction of neuronal damage recorded in pilo-DZP rats, piriform cortex layers III-IV” value ([1]; TC60 (60 mg/kg)) is reported as 44%. For the same molecule, the “more damage (worsening of cell loss) compared with pilo-DZP rats, dorsal entorhinal cortex layers III-IV” value ([1]; pilo-TC10 (10 mg/kg)) was 28%, the “more damage (worsening of cell loss) compared with pilo-DZP rats, ventral entorhinal cortex layers III-IV” value ([1]; pilo-TC10 (10 mg/kg)) was 35% and the “cell loss, CA1 pyramidal layer” value ([1]; pilo-TC30 (30 mg/kg)) was 35%. For the same molecule, the “cell loss, CA1 pyramidal layer” value ([1]; pilo-TC60 (60 mg/kg)) was 16%, the “cell loss, hilus of the dentate gyrus” value ([1]; pilo-test compound animals (10, 30, 60 mg/kg)) was 69-72% and the “reduction of neuronal damage, lateral thalamic nucleus” value ([1]; test compound 60 mg/kg) was 65%. The “reduction of neuronal damage, mediodorsal thalamic nucleus” value ([1]; test compound 60 mg/kg) was 42%, the “protection in CA3b” value ([1]; test compound 60 mg/kg vs pilo-DZP) was “significantly neuroprotective” and the “protection in the CA3a area” value ([1]; test compound 10, 30, 60 mg/kg vs pilo-DZP) was “did not afford any protection”. For the same molecule, the “degree of mortality during the first 48 h after SE” value ([2]; pilo-TC10, TC 10 mg/kg i.p. 1 h after onset of SE, 6/23) was 26%, the “degree of mortality during the first 48 h after SE” value ([2]; pilo-TC30, TC 30 mg/kg i.p. 1 h after onset of SE, 5/25) was 20% and the “degree of mortality during the first 48 h after SE” value ([2]; pilo-TC60, TC 60 mg/kg i.p. 1 h after onset of SE, 1/23, p<0.01) was 4%. For the same molecule, the “degree of mortality over the first 48 h after SE” value ([3]; TC30 (30 mg/kg i.p.), group devoted to cell counting at 14 days, 4/12) was 33%, the “degree of mortality over the first 48 h after SE” value ([3]; TC30, group devoted to latency to SRS and late cell counting, 3/11) was 27% and the “degree of mortality over the first 48 h after SE” value ([3]; TC60 (60 mg/kg i.p.), group devoted to cell counting at 14 days, 1/12) was 8%. The “degree of mortality over the first 48 h after SE” value ([3]; TC60, group devoted to latency to SRS and late cell counting, 0/10) was 0%, the “degree of mortality over the first 48 h after SE” value ([3]; TC90 (90 mg/kg i.p.), group devoted to cell counting at 14 days, 0/10) was 0% and the “degree of mortality over the first 48 h after SE” value ([3]; TC90, group devoted to latency to SRS and late cell counting, 0/11) was 0%. For the same molecule, the “degree of mortality over the first 48 h after SE” value ([3]; TC120 (120 mg/kg i.p.), group devoted to cell counting at 14 days, 4/12) was 33% and the “degree of mortality over the first 48 h after SE” value ([3]; TC120, group devoted to latency to SRS and late cell counting, 0/9) was 0%.

Reference: patent US20090137652A1, “METHODS FOR NEUROPROTECTION” (priority 2005, published 2009)
